Key:
EAMG rats [1] = experiment: Electromyography: CMAP ratio under repetitive 3 Hz nerve stimulation in EAMG rats; assay type: in vivo, rat; details: for Effect on CMAP decline / muscle function in EAMG rats: comparable amounts, Table 1; for CMAP ratio (5th vs. 1st amplitude): average ± SEM; for Effect of oral administration on CMAP decline: oral gavage, 1000 μg/kg pyridostigmine, CMAP 1, 5, 24 h
AChE-R mRNA = experiment: In situ hybridization of AChE-R mRNA in rat muscle; assay type: in vivo; details: healthy and EAMG rats
Description: In situ hybridization: Tissues were fixed in 4% paraformaldehyde and cut into 7 μm paraffin embedded sections. Spinal cord sections were deparaffinized, rehydrated using serial ethanol dilutions and permeabilized with proteinase K (10 μg/ml at room temp.). Slides were exposed to 5′ biotinylated, fully 2′-oxymethylated AChE-R or AChE-S-specific 50-mer cRNA probes complementary to human ACHE pseudo-intron 4 or exon 6, respectively [Grisaru et al. (2001) id ibid.]. Hybridization was performed overnight at 52° C. in hybridization mixture containing 10 μg/ml probe, 50 μg/ml yeast tRNA, 50 μg/ml heparin and 50% formamide in 375 mM Na chloride, 37.5 mM Na citrate, pH 4.5. For monkey sections, the probe was constructed according to the human AChE-R sequence; for rat sections, according to the mouse sequence. Slides were washed to remove non-hybridized probe, blocked with 1% skim milk containing 0.01% Tween-20 and 2 mM levamisole, an alkaline phosphatase inhibitor used to suppress non-specific staining and incubate with streptavidin-alkaline phosphatase (Amersham Pharmacia). Fast Red™ substrate (Roche Diagnostics) was used for detection. DAPI staining (Sigma Chemical Co., St. Louis, Mo., USA) served to visualize nuclei. Microscope images were analyzed with Image Pro Plus 4.0 (Media Cybernetics) software. […]

EAMG rats [2] = experiment: Repeated daily treatment of EAMG rats (5 days and 1 month): survival, body weight, status; assay type: in vivo, rat
Source text: As shown in Example 5, unlike anti-cholinesterases, rEN101 afforded long-term maintenance of stable CMAP. This further enabled the inventors to test whether the cholinergic imbalance contributes to the physiological deterioration that is characteristic of EAMG. Rats were first treated with rEN101 once a day for 5 days, CMAPs being determined prior to each treatment. Both the efficacy of rEN101 in retrieving normal CMAP and its capacity to reduce the inter-animal variability in CMAP values reached similar levels to those of pyridostigmine (FIGS. 11A and 11B). However, the onset of response to pyridostigmine was more rapid (Table 1), while that observed with rEN101 was longer-lasting. Daily oral or i.v administration of rEN101 stabilized CMAPs over the entire course of treatment (FIG. 11B). In contrast, the effect of pyridostigmine wore off within several hours, causing pronounced fluctuations in muscle status (Table 1 and FIG. 11). Among the animals treated daily with pyridostigmine, 5 out of 6 died within the 5 day experimental course. In contrast, 6 out of 8 animals treated once-a-day with rEN101 via o.g. survived the full 5 day period. This conspicuous difference might reflect the susceptibility of EAMG rats to repeated anesthesia and CMAP measurements. In order to avoid these additional stresses and evaluate the effect of the antisense treatment on EAMG pathophysiology, the inventors subjected groups of moderately sick animals to 1 month of daily oral treatment with minimal interference. […] One way repeated measures ANOVA yielded P<0.05 for all other measures (AS vs. other treatments at 4 weeks). The effect of rEN101 on clinical symptoms was also corroborated by body weight changes. Rats treated with saline and Mestinon treated groups lost 13.5 and 11 g/animal, respectively, whereas animals treated with rEN101 gained, on average, 13 g during the treatment period. Thus, daily rEN101 administration promoted long-term change in the course of EAMG in rats with moderate to severe symptoms, under the same conditions in which untreated or pyridostigmine-treated animals deteriorated.

[3] = intravenous, EAMG rats, 0 h, 50 μg/Kg
[4] = intravenous, EAMG rats, 1 h, 50 μg/Kg
[5] = intravenous, EAMG rats, 5 h, 50 μg/Kg
[6] = intravenous, EAMG rats, 24 h, 50 μg/Kg
[7] = oral, EAMG rats, 0 h, 50 μg/Kg oligonucleotide, 1000 μg/Kg pyridostigmine
[8] = oral, EAMG rats, 1 h, 50 μg/Kg oligonucleotide, 1000 μg/Kg pyridostigmine
[9] = oral, EAMG rats, 5 h, 50 μg/Kg oligonucleotide, 1000 μg/Kg pyridostigmine
[10] = oral, EAMG rats, 24 h, 50 μg/Kg oligonucleotide, 1000 μg/Kg pyridostigmine

## 5′-GGAGAAGGAGGAGGAGAGGG-3′ (chemistry not given here) [r-invEN102, reference compound]
EAMG rats [1]
  Effect on CMAP decline / muscle function in EAMG rats: did not improve muscle function
EAMG rats [1]; [3]
  CMAP ratio (5th vs. 1st amplitude): 0.89 ± 0.02
EAMG rats [1]; [4]
  CMAP ratio (5th vs. 1st amplitude): 0.89 ± 0.03
EAMG rats [1]; [5]
  CMAP ratio (5th vs. 1st amplitude): 0.89 ± 0.02
EAMG rats [1]; [6]
  CMAP ratio (5th vs. 1st amplitude): 0.90 ± 0.02
EAMG rats [1]; 50 μg/Kg oligonucleotide
  Effect of oral administration on CMAP decline: had no significant effect
EAMG rats [1]; [7]
  CMAP ratio (5th vs. 1st amplitude): 0.78 ± 0.06
EAMG rats [1]; [8]
  CMAP ratio (5th vs. 1st amplitude): 0.86 ± 0.05
EAMG rats [1]; [9]
  CMAP ratio (5th vs. 1st amplitude): 0.86 ± 0.05
EAMG rats [1]; [10]
  CMAP ratio (5th vs. 1st amplitude): 0.81 ± 0.08
AChE-R mRNA
  AChE-R mRNA labeling in muscle: unaffected

## 5′-GGGAGAGGAGGAGGAAGAGG-3′ [rEN102]
EAMG rats [1]
  Effect on CMAP decline / muscle function in EAMG rats: induced similar rectification of CMAP decline
EAMG rats [1]; [3]
  CMAP ratio (5th vs. 1st amplitude): 0.85 ± 0.06
EAMG rats [1]; [4]
  CMAP ratio (5th vs. 1st amplitude): 1.04 ± 0.01
EAMG rats [1]; [5]
  CMAP ratio (5th vs. 1st amplitude): 0.98 ± 0.03
EAMG rats [1]; [6]
  CMAP ratio (5th vs. 1st amplitude): 1.00 ± 0.01
EAMG rats [1]; 50 μg/Kg oligonucleotide
  Effect of oral administration on CMAP decline: active in reversing CMAP decline
EAMG rats [1]; [7]
  CMAP ratio (5th vs. 1st amplitude): 0.82 ± 0.02
EAMG rats [1]; [8]
  CMAP ratio (5th vs. 1st amplitude): 0.86 ± 0.04
EAMG rats [1]; [9]
  CMAP ratio (5th vs. 1st amplitude): 0.96 ± 0.02
EAMG rats [1]; [10]
  CMAP ratio (5th vs. 1st amplitude): 0.95 ± 0.03

## CN(C)C(=O)Oc1cccc([N+](C)(C)C)c1 [neostigmine bromide, reference compound]
EAMG rats [1]; 75 μg/kg i.p., EAMG rats
  CMAP after treatment: 107.4 % of the first evoked potential
  Duration of effect on CMAP: 2 h
  Onset of effect on CMAP after injection: 15 min
EAMG rats [1]; 75 μg/kg i.p., EAMG rats, untreated 87.6% of first evoked potential
  CMAP after treatment relative to untreated level: over 120 % of this level

## CN(C)C(=O)Oc1ccc[n+](C)c1 [pyridostigmine, reference compound]
EAMG rats [1]; 50 μg/Kg oligonucleotide
  Effect of oral administration on CMAP decline: restored CMAP for up to several hours
EAMG rats [1]; [7]
  CMAP ratio (5th vs. 1st amplitude): 0.90 ± 0.01
EAMG rats [1]; [8]
  CMAP ratio (5th vs. 1st amplitude): 0.98 ± 0.01
EAMG rats [1]; [9]
  CMAP ratio (5th vs. 1st amplitude): 0.96 ± 0.02
EAMG rats [1]; [10]
  CMAP ratio (5th vs. 1st amplitude): 0.87 ± 0.02
EAMG rats [1]; single oral dose, rEN101 50 μg/kg, pyridostigmine 1000 μg/kg
  CMAP ratio 24 h following single oral administration: returned to the declining baseline
EAMG rats [2]; EAMG rats treated daily, with repeated anesthesia and CMAP measurements
  Animals that died within the 5 day experimental course: 5 out of 6
EAMG rats [2]; EAMG rats, 1 month daily oral treatment
  Body weight lost during the treatment period: 11 g/animal

From patent US7456154B2 (priority 2001, dated 2008)
